Patent publication US8298581B2, “Matrix compositions for controlled delivery of drug substances” (Egalet A/S, priority 2003, dated 2012)
Values after ≈ are worked out from the molar mass of the structure shown.

Test: Solubility of active ingredient in water
Assay type: physicochemical
Conditions: 23° C., water at pH 7.6

solubility: 4300 µg/mL (≈ 20.1 mM)
Structure (SMILES): NCC(CC(=O)O)c1ccc(Cl)cc1 (stereo not shown) [active ingredient, Baclofen]
